# Test results reported in PubChem BioAssay (NCI).
#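 Interpolation was linear, between the two tested concentrations surrounding the appropriate level; five concentrations were tested over 48 hours in 96-well plates. Here, GI50 denotes the concentration required for 50% inhibition of growth. TGI denotes the concentration required for complete inhibition of growth.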
# Tested on: 786-0 renal
# Assay: inhibition of tumour cell growth, NCI panel, 48 h
row,Compound,TGI
1,CCCCCCC(=O)C/C(=N/NC(N)=S)C(=O)NC1C2CC3CC(C2)CC1C3 (configuration not stated),> 100 µM
2,CC1=CC(=O)N(n2c(Cc3ccccc3)n[nH]c2=O)C1=O,> 100 µM
3,CCNc1cc2c(cc1O)CC[C@@H]1[C@@H]2CC[C@]2(C)[C@@H](O)CC[C@@H]12,25.3 µM
4,O=[N+]([O-])c1cccc2nc3ccccc3c(NCCC[N+]3([O-])CCOCC3)c12,0.729 µM
5,NCCCCC(N)C(=O)NCCNc1ccc(NCCNC(=O)C(N)CCCCN)c2c1C(=O)c1ccccc1C2=O (configuration not stated),> 100 µM
6,C=CCc1cc(-c2cc(CC=C)c(O)c(CNCCCl)c2)cc(CNCCCl)c1O,> 100 µM
7,CC(C)(C)c1ccc(-c2nc3ccc(Cl)cc3c(=O)o2)cc1,> 100 µM

# Tested on: A498 renal
# Assay: inhibition of tumour cell growth, NCI panel, 48 h
row,Compound,TGI
1,CC1=CC(=O)N(n2c(Cc3ccccc3)n[nH]c2=O)C1=O,> 100 µM
2,CCNc1cc2c(cc1O)CC[C@@H]1[C@@H]2CC[C@]2(C)[C@@H](O)CC[C@@H]12,6.16 µM
3,O=[N+]([O-])c1cccc2nc3ccccc3c(NCCC[N+]3([O-])CCOCC3)c12,0.422 µM
4,NCCCCC(N)C(=O)NCCNc1ccc(NCCNC(=O)C(N)CCCCN)c2c1C(=O)c1ccccc1C2=O (configuration not stated),> 100 µM
5,C=CCc1cc(-c2cc(CC=C)c(O)c(CNCCCl)c2)cc(CNCCCl)c1O,52.3 µM
6,CC(C)(C)c1ccc(-c2nc3ccc(Cl)cc3c(=O)o2)cc1,79.4 µM

# Tested on: A549 NSCLC
# Assay: inhibition of tumour cell growth, NCI panel, 48 h
row,Compound,TGI
1,CCCCCCC(=O)C/C(=N/NC(N)=S)C(=O)NC1C2CC3CC(C2)CC1C3 (configuration not stated),> 100 µM
2,CC1=CC(=O)N(n2c(Cc3ccccc3)n[nH]c2=O)C1=O,> 100 µM
3,CCNc1cc2c(cc1O)CC[C@@H]1[C@@H]2CC[C@]2(C)[C@@H](O)CC[C@@H]12,54.6 µM
4,O=[N+]([O-])c1cccc2nc3ccccc3c(NCCC[N+]3([O-])CCOCC3)c12,0.871 µM
5,NCCCCC(N)C(=O)NCCNc1ccc(NCCNC(=O)C(N)CCCCN)c2c1C(=O)c1ccccc1C2=O (configuration not stated),> 100 µM
6,C=CCc1cc(-c2cc(CC=C)c(O)c(CNCCCl)c2)cc(CNCCCl)c1O,76.1 µM
7,CC(C)(C)c1ccc(-c2nc3ccc(Cl)cc3c(=O)o2)cc1,53 µM

# Tested on: ACHN renal
# Assay: inhibition of tumour cell growth, NCI panel, 48 h
row,Compound,TGI
1,CCCCCCC(=O)C/C(=N/NC(N)=S)C(=O)NC1C2CC3CC(C2)CC1C3 (configuration not stated),> 100 µM
2,CC1=CC(=O)N(n2c(Cc3ccccc3)n[nH]c2=O)C1=O,> 100 µM
3,CCNc1cc2c(cc1O)CC[C@@H]1[C@@H]2CC[C@]2(C)[C@@H](O)CC[C@@H]12,22 µM
4,O=[N+]([O-])c1cccc2nc3ccccc3c(NCCC[N+]3([O-])CCOCC3)c12,3.81 µM
5,NCCCCC(N)C(=O)NCCNc1ccc(NCCNC(=O)C(N)CCCCN)c2c1C(=O)c1ccccc1C2=O (configuration not stated),> 100 µM
6,C=CCc1cc(-c2cc(CC=C)c(O)c(CNCCCl)c2)cc(CNCCCl)c1O,46.2 µM
7,CC(C)(C)c1ccc(-c2nc3ccc(Cl)cc3c(=O)o2)cc1,61.7 µM

# Tested on: BT-549 breast
# Assay: inhibition of tumour cell growth, NCI panel, 48 h
row,Compound,TGI
1,CC1=CC(=O)N(n2c(Cc3ccccc3)n[nH]c2=O)C1=O,> 100 µM
2,CCNc1cc2c(cc1O)CC[C@@H]1[C@@H]2CC[C@]2(C)[C@@H](O)CC[C@@H]12,43.3 µM
3,O=[N+]([O-])c1cccc2nc3ccccc3c(NCCC[N+]3([O-])CCOCC3)c12,1.4 µM
4,NCCCCC(N)C(=O)NCCNc1ccc(NCCNC(=O)C(N)CCCCN)c2c1C(=O)c1ccccc1C2=O (configuration not stated),20.1 µM
5,CC(C)(C)c1ccc(-c2nc3ccc(Cl)cc3c(=O)o2)cc1,63.6 µM

# Tested on: CAKI-1 renal
# Assay: inhibition of tumour cell growth, NCI panel, 48 h
row,Compound,TGI
1,CC1=CC(=O)N(n2c(Cc3ccccc3)n[nH]c2=O)C1=O,> 100 µM
2,CCNc1cc2c(cc1O)CC[C@@H]1[C@@H]2CC[C@]2(C)[C@@H](O)CC[C@@H]12,27.2 µM
3,O=[N+]([O-])c1cccc2nc3ccccc3c(NCCC[N+]3([O-])CCOCC3)c12,12.1 µM
4,NCCCCC(N)C(=O)NCCNc1ccc(NCCNC(=O)C(N)CCCCN)c2c1C(=O)c1ccccc1C2=O (configuration not stated),> 100 µM
5,CC(C)(C)c1ccc(-c2nc3ccc(Cl)cc3c(=O)o2)cc1,63.9 µM

# Tested on: CCRF-CEM leukemia
# Assay: inhibition of tumour cell growth, NCI panel, 48 h
row,Compound,TGI
1,CCCCCCC(=O)C/C(=N/NC(N)=S)C(=O)NC1C2CC3CC(C2)CC1C3 (configuration not stated),> 100 µM
2,CC1=CC(=O)N(n2c(Cc3ccccc3)n[nH]c2=O)C1=O,62.7 µM
3,CCNc1cc2c(cc1O)CC[C@@H]1[C@@H]2CC[C@]2(C)[C@@H](O)CC[C@@H]12,> 100 µM
4,O=[N+]([O-])c1cccc2nc3ccccc3c(NCCC[N+]3([O-])CCOCC3)c12,0.583 µM
5,NCCCCC(N)C(=O)NCCNc1ccc(NCCNC(=O)C(N)CCCCN)c2c1C(=O)c1ccccc1C2=O (configuration not stated),> 100 µM
6,C=CCc1cc(-c2cc(CC=C)c(O)c(CNCCCl)c2)cc(CNCCCl)c1O,81.8 µM
7,CC(C)(C)c1ccc(-c2nc3ccc(Cl)cc3c(=O)o2)cc1,34.2 µM

# Tested on: COLO 205 colon
# Assay: inhibition of tumour cell growth, NCI panel, 48 h
row,Compound,TGI
1,CCCCCCC(=O)C/C(=N/NC(N)=S)C(=O)NC1C2CC3CC(C2)CC1C3 (configuration not stated),> 100 µM
2,CC1=CC(=O)N(n2c(Cc3ccccc3)n[nH]c2=O)C1=O,> 100 µM
3,CCNc1cc2c(cc1O)CC[C@@H]1[C@@H]2CC[C@]2(C)[C@@H](O)CC[C@@H]12,27.8 µM
4,O=[N+]([O-])c1cccc2nc3ccccc3c(NCCC[N+]3([O-])CCOCC3)c12,0.24 µM
5,NCCCCC(N)C(=O)NCCNc1ccc(NCCNC(=O)C(N)CCCCN)c2c1C(=O)c1ccccc1C2=O (configuration not stated),> 100 µM
6,C=CCc1cc(-c2cc(CC=C)c(O)c(CNCCCl)c2)cc(CNCCCl)c1O,32.1 µM
7,CC(C)(C)c1ccc(-c2nc3ccc(Cl)cc3c(=O)o2)cc1,39.9 µM

# Tested on: DLD-1 colon
# Assay: inhibition of tumour cell growth, NCI panel, 48 h
row,Compound,TGI
1,CCCCCCC(=O)C/C(=N/NC(N)=S)C(=O)NC1C2CC3CC(C2)CC1C3 (configuration not stated),> 100 µM
2,C=CCc1cc(-c2cc(CC=C)c(O)c(CNCCCl)c2)cc(CNCCCl)c1O,57 µM

# Tested on: DMS 114 small cell lung
# Assay: inhibition of tumour cell growth, NCI panel, 48 h
row,Compound,TGI
1,C=CCc1cc(-c2cc(CC=C)c(O)c(CNCCCl)c2)cc(CNCCCl)c1O,42.2 µM

# Tested on: DU-145 prostate
# Assay: inhibition of tumour cell growth, NCI panel, 48 h
Compound,TGI,GI50
CC1=CC(=O)N(n2c(Cc3ccccc3)n[nH]c2=O)C1=O,> 100 µM,
CCNc1cc2c(cc1O)CC[C@@H]1[C@@H]2CC[C@]2(C)[C@@H](O)CC[C@@H]12,20.5 µM,3.84 µM
O=[N+]([O-])c1cccc2nc3ccccc3c(NCCC[N+]3([O-])CCOCC3)c12,0.868 µM,
NCCCCC(N)C(=O)NCCNc1ccc(NCCNC(=O)C(N)CCCCN)c2c1C(=O)c1ccccc1C2=O (configuration not stated),> 100 µM,
CC(C)(C)c1ccc(-c2nc3ccc(Cl)cc3c(=O)o2)cc1,92.4 µM,

# Tested on: EKVX NSCLC
# Assay: inhibition of tumour cell growth, NCI panel, 48 h
row,Compound,TGI
1,CCCCCCC(=O)C/C(=N/NC(N)=S)C(=O)NC1C2CC3CC(C2)CC1C3 (configuration not stated),> 100 µM
2,CC1=CC(=O)N(n2c(Cc3ccccc3)n[nH]c2=O)C1=O,> 100 µM
3,CCNc1cc2c(cc1O)CC[C@@H]1[C@@H]2CC[C@]2(C)[C@@H](O)CC[C@@H]12,34.8 µM
4,O=[N+]([O-])c1cccc2nc3ccccc3c(NCCC[N+]3([O-])CCOCC3)c12,2.01 µM
5,NCCCCC(N)C(=O)NCCNc1ccc(NCCNC(=O)C(N)CCCCN)c2c1C(=O)c1ccccc1C2=O (configuration not stated),> 100 µM
6,CC(C)(C)c1ccc(-c2nc3ccc(Cl)cc3c(=O)o2)cc1,70 µM

# Tested on: HCC-2998 colon
# Assay: inhibition of tumour cell growth, NCI panel, 48 h
row,Compound,TGI
1,CCCCCCC(=O)C/C(=N/NC(N)=S)C(=O)NC1C2CC3CC(C2)CC1C3 (configuration not stated),> 100 µM
2,CC1=CC(=O)N(n2c(Cc3ccccc3)n[nH]c2=O)C1=O,> 100 µM
3,CCNc1cc2c(cc1O)CC[C@@H]1[C@@H]2CC[C@]2(C)[C@@H](O)CC[C@@H]12,7.33 µM
4,O=[N+]([O-])c1cccc2nc3ccccc3c(NCCC[N+]3([O-])CCOCC3)c12,0.0393 µM
5,NCCCCC(N)C(=O)NCCNc1ccc(NCCNC(=O)C(N)CCCCN)c2c1C(=O)c1ccccc1C2=O (configuration not stated),> 100 µM
6,C=CCc1cc(-c2cc(CC=C)c(O)c(CNCCCl)c2)cc(CNCCCl)c1O,31.4 µM
7,CC(C)(C)c1ccc(-c2nc3ccc(Cl)cc3c(=O)o2)cc1,27.6 µM

# Tested on: HCT-116 colon
# Assay: inhibition of tumour cell growth, NCI panel, 48 h
Compound,TGI,GI50
CCCCCCC(=O)C/C(=N/NC(N)=S)C(=O)NC1C2CC3CC(C2)CC1C3 (configuration not stated),> 100 µM,
CC1=CC(=O)N(n2c(Cc3ccccc3)n[nH]c2=O)C1=O,> 100 µM,
CCNc1cc2c(cc1O)CC[C@@H]1[C@@H]2CC[C@]2(C)[C@@H](O)CC[C@@H]12,18.7 µM,3.1 µM
O=[N+]([O-])c1cccc2nc3ccccc3c(NCCC[N+]3([O-])CCOCC3)c12,0.533 µM,
NCCCCC(N)C(=O)NCCNc1ccc(NCCNC(=O)C(N)CCCCN)c2c1C(=O)c1ccccc1C2=O (configuration not stated),> 100 µM,
C=CCc1cc(-c2cc(CC=C)c(O)c(CNCCCl)c2)cc(CNCCCl)c1O,34.6 µM,
CC(C)(C)c1ccc(-c2nc3ccc(Cl)cc3c(=O)o2)cc1,40.5 µM,

# Tested on: HCT-15 colon
# Assay: inhibition of tumour cell growth, NCI panel, 48 h
row,Compound,TGI
1,CC1=CC(=O)N(n2c(Cc3ccccc3)n[nH]c2=O)C1=O,> 100 µM
2,CCNc1cc2c(cc1O)CC[C@@H]1[C@@H]2CC[C@]2(C)[C@@H](O)CC[C@@H]12,15 µM
3,O=[N+]([O-])c1cccc2nc3ccccc3c(NCCC[N+]3([O-])CCOCC3)c12,6.42 µM
4,NCCCCC(N)C(=O)NCCNc1ccc(NCCNC(=O)C(N)CCCCN)c2c1C(=O)c1ccccc1C2=O (configuration not stated),> 100 µM
5,C=CCc1cc(-c2cc(CC=C)c(O)c(CNCCCl)c2)cc(CNCCCl)c1O,31.1 µM
6,CC(C)(C)c1ccc(-c2nc3ccc(Cl)cc3c(=O)o2)cc1,49.5 µM

# Tested on: HL-60(TB) leukemia
# Assay: inhibition of tumour cell growth, NCI panel, 48 h
row,Compound,TGI
1,CCCCCCC(=O)C/C(=N/NC(N)=S)C(=O)NC1C2CC3CC(C2)CC1C3 (configuration not stated),> 100 µM
2,CCNc1cc2c(cc1O)CC[C@@H]1[C@@H]2CC[C@]2(C)[C@@H](O)CC[C@@H]12,8.12 µM
3,O=[N+]([O-])c1cccc2nc3ccccc3c(NCCC[N+]3([O-])CCOCC3)c12,1.02 µM
4,NCCCCC(N)C(=O)NCCNc1ccc(NCCNC(=O)C(N)CCCCN)c2c1C(=O)c1ccccc1C2=O (configuration not stated),> 100 µM
5,C=CCc1cc(-c2cc(CC=C)c(O)c(CNCCCl)c2)cc(CNCCCl)c1O,44.8 µM
6,CC(C)(C)c1ccc(-c2nc3ccc(Cl)cc3c(=O)o2)cc1,42.4 µM

# Tested on: HOP-62 NSCLC
# Assay: inhibition of tumour cell growth, NCI panel, 48 h
Compound,TGI,GI50
CCCCCCC(=O)C/C(=N/NC(N)=S)C(=O)NC1C2CC3CC(C2)CC1C3 (configuration not stated),> 100 µM,
CCNc1cc2c(cc1O)CC[C@@H]1[C@@H]2CC[C@]2(C)[C@@H](O)CC[C@@H]12,23.2 µM,0.584 µM
O=[N+]([O-])c1cccc2nc3ccccc3c(NCCC[N+]3([O-])CCOCC3)c12,0.689 µM,
